Assay results reported in paper PMC10380726, “Cyanocobalamin-Modified Colistin–Hyaluronan Conjugates: Synthesis and Bioactivity” (International Journal of Molecular Sciences, 2023).

Experiments:
P. aeruginosa ATCC 27853 = test: Antimicrobial activity, microtiter broth dilution method; type: cell-based, Pseudomonas aeruginosa; conditions: 1 × 10^7 CFU/mL, Mueller–Hinton broth, 24 h at 37 °C, OD 630 nm, concentration equivalent to CT
Experimental: The antimicrobial activity of HA–CT–B12 was tested using the microtiter broth dilution method, as previously reported. P. aeruginosa ATCC 27853 (Museum of Microbiological Cultures, State Research Institute of Highly Pure Biopreparations, St. Petersburg, Russia) was used as the experimental microorganism. Briefly, HA–CT–B12 conjugate stock solutions were prepared by diluting samples in Mueller–Hinton broth to a maximum 2-fold concentration equivalent to CT. Serial dilutions of CT (64 to 0.25 μg/mL) were then plated on Luria-Bertani agar culture plates. The antimicrobial efficacy of the HA–CT–B12 conjugates was confirmed by the absence of P. aeruginosa growth. P. aeruginosa suspension was serially diluted 1:100 in Müller–Hinton broth to obtain a concentration of approximately 1 × 10^7 CFU/mL. Then, 125 µL of the inoculum was added to the wells of the culture plate containing HA–CT–B12 solutions in Müller–Hinton broth. […] The plate was incubated for 24 h at 37 °C and the optical density (OD) was measured at 630 nm using an ELx808™ Absorbance Microplate Reader (BioTek Instruments, Winooski, VT, USA). Relative bacterial growth (%) was calculated as the ratio of OD630 at each concentration of the test samples to OD630 in the control (0 μg/mL). […]

Caco-2 cell monolayer = test: Caco-2 cell permeability assay; type: in vitro ADME, human
Experimental: The human colon adenocarcinoma cell line Caco-2 was obtained from the Russian Cell Culture Collection (Institute of Cytology, Russian Academy of Sciences, St. Petersburg, Russia). Caco-2 cells were cultured in DMEM medium supplemented with 10% FBS, L-glutamine, and penicillin/streptomycin in 75 cm^2 cell culture flasks (Jet Biofil, Guangzhou, China) at 37 °C in a humidified atmosphere containing 5% CO2 in a CO2 incubator. When the cells reached 60-70% confluence, the cells were sub-cultured into new flasks (1:6 ratio). […] Samples were collected from the bottom chamber and fluorescence intensity was measured using a fluorescence plate reader (excitation 492 nm; emission 520 nm). […] The content of vitamin B12 and the content of the HA-CT-B12 conjugate equivalent to vitamin B12 were determined spectrophotometrically at 360 nm using a calibration curve. […] The Papp was calculated using the following equation [33]:(1) […]0 where Papp is the apparent permeability coefficient (cm/s); dQ/dt -is the permeation rate (μg/s); A is the monolayer area (0.3 sm^2); and C0 is the concentration in the apical chamber at the initial moment of time (μg/mL).

Substance | Minimum inhibitory concentration (MIC) (P. aeruginosa ATCC 27853) [µg/mL] | Apparent permeability coefficient (Papp) (Caco-2 cell monolayer; Caco-2) [×10⁻⁶ cm/s] | Apparent permeability coefficient (Papp) (Caco-2 cell monolayer; Caco-2 monolayer, day 21, apical to basolateral, PBS, 2 h with sampling every 30 min, 1 mg CT, 28.5 mg vitamin B12 or 300 mg conjugate in 5 mL PBS, 0.5 mL applied, B12 and conjugate read at 360 nm, mean of n = 3) [×10⁻⁶ cm/s]
colistin [CT] | 2 | 0.04 | 
cyanocobalamin [vitamin B12] |  |  | 5.4
